The numbers were not newly measured in EP0851285A1, “Photothermographic recording material coatable from an aqueous medium” (priority 1996, dated 1998), which cites them from elsewhere.

The conditions of this data set: salts B.

Take `[Ag+].[Ag+].[O]=[W](=[O])([O-])[O-]` [silver tungstate]: the Solubility in water (at 15°C (cell overrides title's 20°C)) is 0.05 (at 15°C) g/100mL water. On to `O=P(=O)[O-].[Ag+]` [silver metaphosphate], for which, where the note is “20°C”, the “Solubility in water at 20°C” value is reported as 0.32 g/100mL water.
